The target in assay [1] is T1, human androgen receptor (Homo sapiens, UniProt P10275).
T1 construct: expressed in transfected cells; host or cells: Chinese hamster ovary (CHO) cells, cell line CHO-AR-pMMTV-LUC 1G12-A5-CA
T1 sequence (P10275 1-920): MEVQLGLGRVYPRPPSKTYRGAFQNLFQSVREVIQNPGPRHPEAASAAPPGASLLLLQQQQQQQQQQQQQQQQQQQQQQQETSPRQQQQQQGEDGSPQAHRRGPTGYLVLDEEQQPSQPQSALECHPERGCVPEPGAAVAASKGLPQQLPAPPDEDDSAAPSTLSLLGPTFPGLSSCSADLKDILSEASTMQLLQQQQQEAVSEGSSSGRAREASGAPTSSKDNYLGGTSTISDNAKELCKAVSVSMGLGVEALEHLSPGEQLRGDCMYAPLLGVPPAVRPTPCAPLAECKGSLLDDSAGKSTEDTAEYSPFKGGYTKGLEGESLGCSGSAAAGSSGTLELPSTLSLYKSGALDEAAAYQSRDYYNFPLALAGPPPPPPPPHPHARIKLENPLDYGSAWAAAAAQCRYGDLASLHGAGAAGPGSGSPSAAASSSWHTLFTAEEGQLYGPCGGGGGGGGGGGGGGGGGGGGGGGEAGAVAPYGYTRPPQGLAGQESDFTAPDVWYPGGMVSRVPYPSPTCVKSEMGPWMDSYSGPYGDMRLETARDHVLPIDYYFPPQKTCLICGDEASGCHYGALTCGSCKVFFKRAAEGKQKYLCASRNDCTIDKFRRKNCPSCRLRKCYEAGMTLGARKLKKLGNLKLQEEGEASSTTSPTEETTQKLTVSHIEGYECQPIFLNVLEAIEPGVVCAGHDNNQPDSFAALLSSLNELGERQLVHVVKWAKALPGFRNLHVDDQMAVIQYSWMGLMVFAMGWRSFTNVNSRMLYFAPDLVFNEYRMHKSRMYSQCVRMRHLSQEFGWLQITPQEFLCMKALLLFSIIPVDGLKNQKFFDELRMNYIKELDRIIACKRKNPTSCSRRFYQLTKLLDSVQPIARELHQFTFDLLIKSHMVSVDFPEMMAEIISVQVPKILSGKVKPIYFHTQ
Kind of assay: cell-based. The following applies: androgenic activity, CHO-AR-pMMTV-LUC cells; read-out: ago EC50. On the procedure: Compounds were tested for their Androgen Receptor activity in a transactivation assay and in a binding assay.
The (anti-)androgenic activity of test compounds (EC50 and intrinsic activity) was determined in an in vitro bioassay of Chinese hamster ovary (CHO) cells stably transfected with the human androgen receptor expression plasmid and a reporter plasmid in which the MMTV-promoter is linked to the luciferase reporter gene. The cell-line CHO-AR-pMMTV-LUC 1G12-AS-CA is described in Schoonen et al. (2000), Journal of Steroid Biochemistry and Molecular Biology 74(4):213-222. The antiandrogenic activity of a test compound was determined by the inhibition of the transactivation via the androgen receptor of the enzyme luciferase in the presence of 1 nM DHT (5 α-dihydrotestosterone, 17β-hydroxy-5α-androstan-3-one). Intrinsic activity of antiandrogenic activity was determined in the presence of the reference antiandrogen 2-Hydroxy-2-methyl-N-(4-nitro-3-trifluoromethyl-phenyl)-propionamide (Hydroxyflutamide), and set at 100%. For androgenic activity, maximal intrinsic activity in the presence of 100 nM DHT was set at 100%. Table 4 Androgen receptor activity

Assay [2] deals with T1, human androgen receptor. Description: Androgen receptor transactivation assay, antiandrogenic activity: inhibition of transactivation in the presence of 1 nM DHT (CHO-AR-pMMTV-LUC cells; Table 4). Particulars: read-out: ant efficacy, in the presence of 1 nM DHT; intrinsic activity relative to reference antiandrogen Hydroxyflutamide (set at 100%). The assay is classed as cell-based.

In assay [3] the target is T1, human androgen receptor. Description: Androgen receptor transactivation assay, androgenic activity in the presence of 0.1 µmol/l onapristone (CHO-AR-pMMTV-LUC cells; Table 5). In kind it is cell-based. The following applies: for ago efficacy: maximal intrinsic activity in the presence of 100 nM DHT set at 1.00; for ago potency: potency expressed as percentage of DHT activity. The procedure: The androgenic activity (EC50, potency, and efficacy) of the compounds in Table 5 was determined in an in vitro bioassay of Chinese hamster ovary (CHO) cells stably transfected with the human androgen receptor expression plasmid and a reporter plasmid in which the MMTV promotor is linked to the luciferase reporter gene. The cell line CHO-AR-pMMTV-LUC 1G12-A5-CA is described in Schoonen et al. (J. Steroid Biochem. Molec. Biol. […]; 74: 213-222). The androgen receptor activity of compounds was determined in the presence of 0.1 µmol/l onapristone. The maximal efficacy in the presence of 100 nmol/l DHT was set as 100%. The potencies are expressed as percentage of DHT activity. Table 5 Androgen receptor activity

Bounds are passed on as bounds.

`COc1ccc2c(Sc3ccccc3C(N)=O)cn(Cc3cc(F)cc(F)c3)c2c1` [Compound 18, 2-[1-(3,5-Difluoro-benzyl)-6-methoxy-1H-indol-3-ylsulfanyl]-benzamide]: the EC50 (usually the concentration at which the effect is half-maximal) at human androgen receptor [1] was above 10 µM. Besides, the Emax at human androgen receptor [2] lay within 20 to 50%.

With `CS(=O)(=O)Nc1ccc2c(Sc3ccccc3[N+](=O)[O-])cn(Cc3cc(F)cc(F)c3)c2c1` [Compound 106, N-[1-(3,5-Difluoro-benzyl)-3-(2-nitro-phenylsulfanyl)-1H-indol-6-yl]-methanesulfonamide], on human androgen receptor [3], the ago efficacy entry was “++ (≥0.80)”; the ago potency entry is “+ (between 1% and 5%)”.

As for `O=[N+]([O-])c1ccccc1Sc1cn(Cc2cc(F)cc(F)c2)c2cc(NS(=O)(=O)c3ccsc3)ccc12` [Compound 107, Thiophene-3-sulfonic acid [1-(3,5-difluoro-benzyl)-3-(2-nitro-phenylsulfanyl)-1H-indol-6-yl]-amide], on human androgen receptor [3], the ago efficacy entry is “++ (≥0.80)”; the ago potency entry was “+ (between 1% and 5%)”.

Consider `Cn1cnc(S(=O)(=O)Nc2ccc3c(Sc4ccccc4[N+](=O)[O-])cn(Cc4cc(F)cc(F)c4)c3c2)c1` [Compound 108, 1-Methyl-1H-imidazole-4-sulfonic acid [1-(3,5-difluoro-benzyl)-3-(2-nitro-phenylsulfanyl)-1H-indol-6-yl]-amide], for which, at human androgen receptor [3], the ago efficacy entry is “++ (≥0.80)”; the ago potency entry was “+ (between 1% and 5%)”.

Take `CN(C)C(=O)c1ccc2c(Sc3ccccc3[N+](=O)[O-])cn(Cc3ccccn3)c2c1` [Compound 109, 3-(2-Nitro-phenylsulfanyl)-1-pyridin-2-ylmethyl-1H-indole-6-carboxylic acid dimethylamide]: at human androgen receptor [3], the ago efficacy result is on record as “++ (≥0.80)”; the ago potency result was “+ (between 1% and 5%)”.

Consider `CNC(=O)c1ccc2c(Sc3ccccc3[N+](=O)[O-])cn(Cc3ccccn3)c2c1` [Compound 110, 3-(2-Nitro-phenylsulfanyl)-1-pyridin-2-ylmethyl-1H-indole-6-carboxylic acid methylamide], for which, on human androgen receptor [3], the ago efficacy entry is “+ (between 0.50 and 0.80)”; the ago potency result is “+ (between 1% and 5%)”.

As for `NC(=O)c1ccc2c(Sc3ccccc3[N+](=O)[O-])cn(Cc3ccccn3)c2c1` [Compound 111, 3-(2-Nitro-phenylsulfanyl)-1-pyridin-2-ylmethyl-1H-indole-6-carboxylic acid amide], on human androgen receptor [3], the ago efficacy entry is “± (between 0.20 and 0.50)”; the ago potency entry was “± (between 0.1 % and 1%)”.

In the case of `CNC(=O)c1ccc2c(Sc3ccccc3[N+](=O)[O-])cn(Cc3cccnc3)c2c1` [Compound 112, 3-(2-Nitro-phenylsulfanyl)-1-pyridin-3-ylmethyl-1H-indole-6-carboxylic acid methylamide], at human androgen receptor [3], the ago efficacy result is “± (between 0.20 and 0.50)”; the ago potency result was “+ (between 1% and 5%)”.

Turning to `CCNC(=O)c1ccc2c(Sc3ccccc3[N+](=O)[O-])cn(Cc3cccnc3)c2c1` [Compound 113, 3-(2-Nitro-phenylsulfanyl)-1-pyridin-3-ylmethyl-1H-indole-6-carboxylic acid ethylamide], on human androgen receptor [3], the ago efficacy result was “+ (between 0.50 and 0.80)”; the ago potency result was “+ (between 1% and 5%)”.

On to `O=C(NC1CC1)c1ccc2c(Sc3ccccc3[N+](=O)[O-])cn(Cc3cccnc3)c2c1` [Compound 114, 3-(2-Nitro-phenylsulfanyl)-1-pyridin-3-ylmethyl-1H-indole-6-carboxylic acid cyclopropylamide], for which, at human androgen receptor [3], the ago efficacy result was “++ (≥0.80)”; the ago potency result was “+ (between 1% and 5%)”.

Regarding `COc1ccc2c(Sc3ccccc3[N+](=O)[O-])cn(Cc3cncnc3)c2c1` [Compound 115, 6-Methoxy-3-(2-nitro-phenylsulfanyl)-1-pyrimidin-5-ylmethyl-1H-indole], at human androgen receptor [3], the ago efficacy entry was “+ (between 0.50 and 0.80)”; the ago potency entry is listed as “++ (>5%)”.

Consider `COc1ccc2c(Sc3ccccc3[N+](=O)[O-])cn(Cc3ccncn3)c2c1` [Compound 116, 6-Methoxy-3-(2-nitro-phenylsulfanyl)-1-pyrimidin-4-ylmethyl-1H-indole], for which, at human androgen receptor [3], the ago efficacy result was “+ (between 0.50 and 0.80)”; the ago potency result was “+ (between 1% and 5%)”.

`COc1ccc2c(Sc3ccccc3[N+](=O)[O-])cn(Cc3cnccn3)c2c1` [Compound 117, 6-Methoxy-3-(2-nitro-phenylsulfanyl)-1-pyrazin-2-ylmethyl-1H-indole]: at human androgen receptor [3], the ago efficacy entry was “+ (between 0.50 and 0.80)”; the ago potency result is “+ (between 1% and 5%)”.

As for `O=CNc1ccc2c(Sc3ccccc3[N+](=O)[O-])cn(Cc3cncnc3)c2c1` [Compound 118, N-[3-(2-Nitro-phenylsulfanyl)-1-pyrimidin-5-ylmethyl-1H-indol-6-yl]-formamide], on human androgen receptor [3], the ago efficacy result was “+ (between 0.50 and 0.80)”; the ago potency entry was “++ (>5%)”.

As to `N#Cc1ccc2c(Sc3ccccc3[N+](=O)[O-])cn(Cc3ccccn3)c2c1` [Compound 119, 3-(2-Nitro-phenylsulfanyl)-1-pyridin-2-ylmethyl-1H-indole-6-carbonitrile], on human androgen receptor [3], the ago efficacy result is given as “++ (≥0.80)” and the ago potency result is on record as “++ (>5%)”.

For `Cl.N#Cc1ccc2c(Sc3ccccc3[N+](=O)[O-])cn(Cc3ccccn3)c2c1` [Compound 120, 3-(2-Nitro-phenylsulfanyl)-1-pyridin-2-ylmethyl-1H-indole-6-carbonitrile monohydrochloride], at human androgen receptor [3], the ago efficacy entry is on record as “++ (≥0.80)” and the ago potency entry was “++ (>5%)”.

Regarding `N#Cc1ccc2c(Sc3ccccc3[N+](=O)[O-])cn(Cc3cccnc3)c2c1` [Compound 121, 3-(2-Nitro-phenylsulfanyl)-1-pyridin-3-ylmethyl-1H-indole-6-carbonitrile], on human androgen receptor [3], the ago efficacy result was “++ (≥0.80)”; the ago potency entry is “+ (between 1% and 5%)”.

For `N#Cc1ccc2c(Sc3ccccc3[N+](=O)[O-])cn(Cc3ccncc3)c2c1` [Compound 122, 3-(2-Nitro-phenylsulfanyl)-1-pyridin-4-ylmethyl-1H-indole-6-carbonitrile], on human androgen receptor [3], the ago efficacy result is “+ (between 0.50 and 0.80)”; the ago potency result is “+ (between 1% and 5%)”.

In the case of `N#Cc1ccc2c(Sc3ccccc3[N+](=O)[O-])cn(Cc3cncnc3)c2c1` [Compound 123, 3-(2-Nitro-phenylsulfanyl)-1-pyrimidin-5-ylmethyl-1H-indole-6-carbonitrile], at human androgen receptor [3], the ago efficacy result is given as “++ (≥0.80)” and the ago potency entry is given as “++ (>5%)”.

As to `N#Cc1ccc2c(Sc3ccccc3[N+](=O)[O-])cn(Cc3ccncn3)c2c1` [Compound 124, 3-(2-Nitro-phenylsulfanyl)-1-pyrimidin-4-ylmethyl-1H-indole-6-carbonitrile], at human androgen receptor [3], the ago efficacy result is “++ (≥0.80)” and the ago potency entry is recorded as “++ (>5%)”.

Regarding `N#Cc1cccc(Cn2cc(Sc3ccccc3[N+](=O)[O-])c3ccc(C#N)cc32)c1` [Compound 125, 1-(3-Cyano-benzyl)-3-(2-nitro-phenylsulfanyl)-1H-indole-6-carbonitrile], on human androgen receptor [3], the ago efficacy result is “++ (≥0.80)”; the ago potency entry was “+ (between 1% and 5%)”.

The values above are taken from patent publication EP1585727B1, “INDOLES USEFUL IN THE TREATMENT OF ANDROGEN-RECEPTOR RELATED DISEASES” (priority 2002, dated 2004).
